Values quoted from earlier work in patent US8951969B2, “Compositions and methods for treating centrally mediated nausea and vomiting” (Helsinn Healthcare S.A., priority 2009, dated 2015).

Legend:
[1] = test system: nausea following moderately or highly emetogenic chemotherapy; conditions: humans, compared to a 5-HT3 antagonist alone; cited from earlier work
[2] = test system: nausea, moderately emetogenic chemotherapy; conditions: cited from earlier work

Compound | effect on incidence or severity of nausea [1] | effect against nausea ([2]; administered in response to moderately emetogenic chemotherapy) | side effect ([2]; moderately emetogenic chemotherapy)
C[C@@H](O[C@H]1OCCN(Cc2n[nH]c(=O)[nH]2)[C@H]1c1ccc(F)cc1)c1cc(C(F)(F)F)cc(C(F)(F)F)c1 [aprepitant] | unable to induce a significant reduction in the incidence or severity of nausea | – | –
CC(=O)N1CCN([C@H]2CCN(C(=O)N(C)[C@H](C)c3cc(C(F)(F)F)cc(C(F)(F)F)c3)[C@@H](c3ccc(F)cc3C)C2)CC1 [casopitant, (2R,4S)-4-(4-acetytlpiperazin-1-yl)-N-{(1R)-1-[3,5-bis(trifluoromethyl)phenyl]ethyl}-2-(4-fluoro-2-methylphenyl)-N-methylpiperidine-1-carboxamide] | – | no statistically significant effect against nausea | induced nausea as a side effect
